Measured values published in the supplement of paper PMC13207355.
± gives the standard deviation of the averaged measurements.

Tests used:
Conditions in all cases: exposure time: 72 h
E28 [1] = patient-derived glioblastoma stem cells of classical subtype; test: surviving fraction (nuclei count normalised to DMSO); higher = more cells surviving (less toxic)
E34 [2] = patient-derived glioblastoma stem cells of proneural subtype; test: as above
E13 [3] = patient-derived glioblastoma stem cells of classical subtype; test: as above
E21 [4] = patient-derived glioblastoma stem cells of mesenchymal subtype; test: as above
FT3469 [5] = normal neural stem cell line; test: as above
E57 [6] = patient-derived glioblastoma stem cells of mesenchymal subtype; test: as above
E28 [7] = test: phenotypic distance (Euclidean, principal components) from DMSO controls (arbitrary units); higher = stronger morphological change
E34 [8] = test: as above
E13 [9] = test: as above
E21 [10] = test: as above
FT3469 [11] = test: as above
E57 [12] = test: as above
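Throughout, for phenotypic distance (Euclidean, principal components) from DMSO controls: cell Painting imaging in 384-well plates, CellProfiler features reduced to at least 20 principal components, Euclidean distance versus same-plate DMSO vehicle wells (0.1% v/v), median over six images per well.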
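Throughout, for surviving fraction (nuclei count normalised to DMSO): nuclei counted by high-content imaging of Hoechst-stained cells in laminin-coated 384-well plates, relative to 0.1% DMSO vehicle wells, with staurosporine as cell-death control.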

Cc1ccc(NC(=O)c2ccc3c(c2)OCCO3)cc1NC(=O)c1ccc2nc(OCCN3CCCC3)ccc2c1
Conditions | phenotypic distance | surviving fraction
E13 [3], 4.1 nM | – | 0.567
E13 [3], 4.11523 nM | – | 0.579
E13 [3], 12.3 nM | – | 0.474
E13 [3], 12.34567901 nM | – | 0.507
E13 [3], 37 nM | – | 0.421
E13 [3], 37.037 nM | – | 0.402
E13 [3], 111.1 nM | – | 0.347
E13 [3], 111.1111111 nM | – | 0.456
E13 [3], 333.3 nM | – | 0.332
E13 [3], 333.333 nM | – | 0.347
E13 [3], 1000 nM | – | 0.2728 ± 0.0027
E13 [3], 3000 nM | – | 0.245 ± 0.025
E13 [9], 4.1 nM | 2.33 | –
E13 [9], 4.11523 nM | 2.3 | –
E13 [9], 12.3 nM | 2.75 | –
E13 [9], 12.34567901 nM | 2.91 | –
E13 [9], 37 nM | 2.97 | –
E13 [9], 37.037 nM | 2.96 | –
E13 [9], 111.1 nM | 2.97 | –
E13 [9], 111.1111111 nM | 2.53 | –
E13 [9], 333.3 nM | 3.19 | –
E13 [9], 333.333 nM | 3.19 | –
E13 [9], 1000 nM | 4.14 ± 0.19 | –
E13 [9], 3000 nM | 4.93 ± 0.2 | –
E21 [4], 4.1 nM | – | 0.572
E21 [4], 4.11523 nM | – | 0.511
E21 [4], 12.3 nM | – | 0.385
E21 [4], 12.34567901 nM | – | 0.434
E21 [4], 37 nM | – | 0.402
E21 [4], 37.037 nM | – | 0.406
E21 [4], 111.1 nM | – | 0.276
E21 [4], 111.1111111 nM | – | 0.306
E21 [4], 333.3 nM | – | 0.28
E21 [4], 333.333 nM | – | 0.23
E21 [4], 1000 nM | – | 0.235 ± 0.024
E21 [4], 3000 nM | – | 0.159 ± 0.015
E21 [10], 4.1 nM | 1.96 | –
E21 [10], 4.11523 nM | 2.3 | –
E21 [10], 12.3 nM | 3.3 | –
E21 [10], 12.34567901 nM | 2.79 | –
E21 [10], 37 nM | 4.37 | –
E21 [10], 37.037 nM | 3.31 | –
E21 [10], 111.1 nM | 5.55 | –
E21 [10], 111.1111111 nM | 4.4 | –
E21 [10], 333.3 nM | 4.63 | –
E21 [10], 333.333 nM | 5.16 | –
E21 [10], 1000 nM | 4.03 ± 0.4 | –
E21 [10], 3000 nM | 3.92 ± 0.23 | –
E28 [1], 4.1 nM | – | 0.547
E28 [1], 4.11523 nM | – | 0.493
E28 [1], 12.3 nM | – | 0.385
E28 [1], 12.34567901 nM | – | 0.432
E28 [1], 37 nM | – | 0.366
E28 [1], 37.037 nM | – | 0.346
E28 [1], 111.1 nM | – | 0.309
E28 [1], 111.1111111 nM | – | 0.32
E28 [1], 333.3 nM | – | 0.309
E28 [1], 333.333 nM | – | 0.242
E28 [1], 1000 nM | – | 0.317 ± 0.089
E28 [1], 3000 nM | – | 0.285 ± 0.066
E28 [7], 4.1 nM | 2.24 | –
E28 [7], 4.11523 nM | 2.33 | –
E28 [7], 12.3 nM | 3.06 | –
E28 [7], 12.34567901 nM | 2.58 | –
E28 [7], 37 nM | 3.23 | –
E28 [7], 37.037 nM | 2.95 | –
E28 [7], 111.1 nM | 3.14 | –
E28 [7], 111.1111111 nM | 2.92 | –
E28 [7], 333.3 nM | 2.79 | –
E28 [7], 333.333 nM | 3.14 | –
E28 [7], 1000 nM | 2.41 ± 0.13 | –
E28 [7], 3000 nM | 2.42 ± 0.22 | –
E34 [2], 4.1 nM | – | 0.581
E34 [2], 4.11523 nM | – | 0.432
E34 [2], 12.3 nM | – | 0.436
E34 [2], 12.34567901 nM | – | 0.574
E34 [2], 37 nM | – | 0.548
E34 [2], 37.037 nM | – | 0.385
E34 [2], 111.1 nM | – | 0.505
E34 [2], 111.1111111 nM | – | 0.555
E34 [2], 333.3 nM | – | 0.486
E34 [2], 333.333 nM | – | 0.376
E34 [2], 1000 nM | – | 0.494 ± 0.054
E34 [2], 3000 nM | – | 0.464 ± 0.0053
E34 [8], 4.1 nM | 1.52 | –
E34 [8], 4.11523 nM | 2.43 | –
E34 [8], 12.3 nM | 2.63 | –
E34 [8], 12.34567901 nM | 1.82 | –
E34 [8], 37 nM | 2.02 | –
E34 [8], 37.037 nM | 2.96 | –
E34 [8], 111.1 nM | 2.75 | –
E34 [8], 111.1111111 nM | 2.28 | –
E34 [8], 333.3 nM | 3 | –
E34 [8], 333.333 nM | 3.8 | –
E34 [8], 1000 nM | 2.97 ± 0.25 | –
E34 [8], 3000 nM | 3.82 ± 0.7 | –
E57 [6], 4.1 nM | – | 0.335
E57 [6], 4.11523 nM | – | 0.321
E57 [6], 12.3 nM | – | 0.23
E57 [6], 12.34567901 nM | – | 0.214
E57 [6], 37 nM | – | 0.296
E57 [6], 37.037 nM | – | 0.268
E57 [6], 111.1 nM | – | 0.215
E57 [6], 111.1111111 nM | – | 0.277
E57 [6], 333.3 nM | – | 0.209
E57 [6], 333.333 nM | – | 0.246
E57 [6], 1000 nM | – | 0.199 ± 0.018
E57 [6], 3000 nM | – | 0.17 ± 0.0023
E57 [12], 4.1 nM | 2.44 | –
E57 [12], 4.11523 nM | 2.93 | –
E57 [12], 12.3 nM | 3.38 | –
E57 [12], 12.34567901 nM | 3.54 | –
E57 [12], 37 nM | 3.19 | –
E57 [12], 37.037 nM | 3.43 | –
E57 [12], 111.1 nM | 3.22 | –
E57 [12], 111.1111111 nM | 3.19 | –
E57 [12], 333.3 nM | 3.67 | –
E57 [12], 333.333 nM | 3.36 | –
E57 [12], 1000 nM | 3.79 ± 0.25 | –
E57 [12], 3000 nM | 3.67 ± 0.63 | –
FT3469 [5], 4.1 nM | – | 0.613
FT3469 [5], 4.11523 nM | – | 0.62
FT3469 [5], 12.3 nM | – | 0.72
FT3469 [5], 12.34567901 nM | – | 0.67
FT3469 [5], 37 nM | – | 0.636
FT3469 [5], 37.037 nM | – | 0.618
FT3469 [5], 111.1 nM | – | 0.608
FT3469 [5], 111.1111111 nM | – | 0.667
FT3469 [5], 333.3 nM | – | 0.674
FT3469 [5], 333.333 nM | – | 0.615
FT3469 [5], 1000 nM | – | 0.602 ± 0.094
FT3469 [5], 3000 nM | – | 0.484 ± 0.023
FT3469 [11], 4.1 nM | 2.71 | –
FT3469 [11], 4.11523 nM | 2.72 | –
FT3469 [11], 12.3 nM | 3.04 | –
FT3469 [11], 12.34567901 nM | 2.97 | –
FT3469 [11], 37 nM | 3.5 | –
FT3469 [11], 37.037 nM | 3.59 | –
FT3469 [11], 111.1 nM | 3.07 | –
FT3469 [11], 111.1111111 nM | 3.24 | –
FT3469 [11], 333.3 nM | 4.42 | –
FT3469 [11], 333.333 nM | 3.16 | –
FT3469 [11], 1000 nM | 2.96 ± 0.38 | –
FT3469 [11], 3000 nM | 3.35 ± 0.2 | –
